For one experiment, the system named is female F344 rats. Put plainly: Effect on bone density (oophorectomy or sham surgery, femur DXA). The settings on record: 3 mg/kg, orally once a day, six days a week, six to eight weeks, female F344 rats after oophorectomy or sham surgery. It is filed as in vivo. As to the method: Eight to 12 week old female F344 rats were purchased from Charles River Laboratories and used in the following experiment. Rats were anesthetized with an intraperitoneal administration of 40 mg/kg of Somnopentyl (Kyoritsu Seiyaku Corporation), and then oophorectomy or sham surgery was performed. From the day after surgery, a suspension of the test compound in a 0.5% methyl cellulose solution (Wako pure chemical industries, Ltd. Cat. No. 133-14255) was orally administered once a day, six days a week. Six to eight weeks after administration, the rats were euthanized by removal of whole blood from the lower abdominal aorta under Somnopentyl anesthesia, and the left and right femur was excised.
After removal of soft tissues, the bone density of the femur thus excised was measured by a DXA apparatus, DCS-600R (Aloka Co., Ltd.). The bone density was assessed in the whole femur as well as in three equal sections of the whole femur, namely the proximal end, the shaft, and the distal end.

The test system of experiment [1] is ST2 cells, murine bone marrow-derived stromal cells. The experiment in a line: Osteoblast differentiation test (alkaline phosphatase activity). It counts as cell-based. The settings on record: Mus musculus, ST-2, 96 h, at 0.03 μg/mL, four days of culturing, control group (0.1% DMSO) set at 100%, read-out: increase (%) in alkaline phosphatase activity. As to the method: ST2 cells, murine bone marrow-derived stromal cells, (obtained from RIKEN) were used.
In this test, α-MEM media (obtained from GIBCO BRL Cat. No. 10370-021) containing 10% (v/v) of inactivated calf serum (obtained from Hyclone Laboratories, Inc.) and 1% (v/v) of Penicillin-Streptomycin Liquid (obtained from GIBCO BRL Cat. No. 15140-122) (hereinbelow, abbreviated as 10%-FBS-αMEM) were used. In this test, all culturing was performed in a CO2 incubator (37° C., 95% humidity, 5% CO2).
The aforementioned cells were detached with 2 mL of a 0.25% trypsin solution (obtained from GIBCO BRL Cat. No. 15050-065) and dispersed in 10 mL of 10%-FBS-αMEM. Subsequently, the cells were collected by centrifugation (25° C., 800 rpm, five minutes). Then, a cell suspension containing 40000 of the cells/mL of 10%-FBS-αMEM was prepared. The cell suspension was then dispensed into 96-well plates (the product of Falcon), 100 μL per well, at a density of 4000 cells/well, followed by culturing for 24 hours. To the wells except for the below-described well containing a control group, the compound was dispensed at final concentrations of 0.01, 0.03, 0.1, and 0.3 μg/ml. To the well of a control group, DMSO was dispensed at a final concentration of 0.1% (v/v). After four days of culturing, the activity of alkaline phosphatase (ALP) was measured in each group.
The measurement of ALP activity was performed as follows. That is, the medium in each well of the culture plates was completely removed. Each well was then washed by dispensing 100 μL of Dulbecco's phosphate buffer (obtained from GIBCO BRL Cat. No. 14190-144) and then removing it. A cell lysate solution containing 10 mM MgCl2 and 2% (v/v) TritonX-100 (Sigma) was prepared and dispensed at 50 μL/well, followed by stirring at room temperature for five minutes. An ALP substrate solution containing 50 mM diethanolamine (Wako pure chemical industries, Ltd., Cat. No. 099-03112) and 20 mM p-nitrophenyl phosphate (Wako pure chemical industries, Ltd., Cat. No. 147-02343) was prepared and dispensed at 50 μL/well, and the plates were left to stand at room temperature for 10 minutes. Subsequently, absorbance was measured by a microplate reader (Bio-Rad Laboratories, Inc.). Setting the measurement value of the control group of each plate at 100%, the increase (%) in alkaline phosphatase activity in the test compound-addition group was calculated, which was assessed as the degree of osteoblast differentiation.

The text below walks through data of patent US8685981B2, “Cyclic compound having hetero atom” (Daiichi Sankyo Company, Limited, priority 2009, dated 2014).

Some results are limits rather than exact numbers.

With `Cl.NC(=O)c1ccc2cncc(N3CCC(OCCOC4CCOCC4)CC3)c2n1` [Example 7, 8-{4-[2-(Tetrahydro-2H-pyran-4-yloxy)ethoxy]piperidin-1-yl}-1,6-naphthyridine-2-carboxamide hydrochloride], in the experiment with female F344 rats, the “bone density of the femur” value is listed as “significantly increased”. Take `NC(=O)c1ccc2cncc(N3CCC(OCCO[C@H]4CCOC4)CC3)c2n1` [Example 4, 8-(4-{2-[(3S)-Tetrahydrofuran-3-yloxy]ethoxy}piperidin-1-yl)-1,6-naphthyridine-2-carboxamide]: in experiment [1], the activity at 0.03 µg/mL is at least 200%. Besides, in the experiment with female F344 rats, the “bone density of the femur” value is “significantly increased”. Turning to `NC(=O)c1ccc2cncc(N3CCC(OCCO[C@@H]4CCOC4)CC3)c2n1` [Example 3, 8-(4-{2-[(3R)-Tetrahydrofuran-3-yloxy]ethoxy}piperidin-1-yl)-1,6-naphthyridine-2-carboxamide], in experiment [1], the activity at 0.03 µg/mL was at least 200%. Moreover, the “bone density of the femur” value with female F344 rats is recorded as “significantly increased”. For the molecule `NC(=O)c1ccc2cncc(N3CCC(O)(c4ccc(Cl)cc4)CC3)c2c1` [Example 54], the activity at 0.03 µg/mL in experiment [1] is at least 200%.

Turning to `CC(=O)N1CCN(c2cncc3ccc(C(N)=O)cc23)CC1` [Example 79], the activity at 0.03 µg/mL in experiment [1] is at least 200%. Still for that read-out and setting: for `NC(=O)c1ccc2cncc(N3CCN(C(=O)c4ccccc4)CC3)c2c1` [Example 78] the value was at least 200%.

As for `Cc1ccn(-c2cncc3ccc(C(N)=O)cc23)c1` [Example 66], the activity at 0.03 µg/mL in experiment [1] is at least 200%. For the molecule `NC(=O)c1ccc2cncc(N3CCN(c4ccccc4)CC3)c2c1` [Example 15, 4-(4-Phenylpiperazin-1-yl)isoquinoline-6-carboxamide], the activity at 0.03 µg/mL in experiment [1] was at least 200%. Besides, the “bone density of the femur” value in the experiment with female F344 rats is “significantly increased”. In the case of `COCCC1CCCN(c2cncc3ccc(C(N)=O)cc23)C1` (stereo not drawn) [Example 41], the activity at 0.03 µg/mL in experiment [1] is at least 200%.

Turning to `NC(=O)c1ccc2cncc(N3CCN(c4ccc(Cl)cc4)CC3)c2c1` [Example 49], the activity at 0.03 µg/mL in experiment [1] was at least 200%.

In the case of `CN(C)S(=O)(=O)CCOC1CCN(c2cncc3ccc(C(N)=O)cc23)CC1` [Example 106], the activity at 0.03 µg/mL in experiment [1] was at least 200%. On to `N#Cc1ccc(N2CCN(c3cncc4ccc(C(N)=O)cc34)CC2)cc1` [Example 62], for which the activity at 0.03 µg/mL in experiment [1] was at least 200%. Turning to `NC(=O)c1ccc2cncc(N3CCCC(COC(F)F)C3)c2n1` (stereo not drawn) [Example 104], the activity at 0.03 µg/mL in experiment [1] was at least 200%. As to `CN(C)C(=O)CCC1CCN(c2cncc3ccc(C(N)=O)cc23)CC1` [Example 82], the activity at 0.03 µg/mL in experiment [1] is at least 200%. The same measure, in the same setting: the result for `CC(C)(C)OC(=O)NCCOCC1CCCN(c2cncc3ccc(C(N)=O)cc23)C1` (stereo not drawn) [Example 21, Tert-butyl (2-{[1-(6-carbamoylisoquinolin-4-yl)piperidin-3-yl]methoxy}ethyl)carbamate] reads at least 200%; that for `NC(=O)c1ccc2cncc(N3CCC(COC(F)F)CC3)c2c1` [Example 95], at least 200%. Same read-out and setting: for `CC(=O)c1ccc(N2CCN(c3cncc4ccc(C(N)=O)cc34)CC2)cc1` [Example 50] the value was at least 200%.

As to `NC(=O)c1ccc2cncc(N3CCCCC3)c2n1` [Example 12, 8-Piperidin-1-yl-1,6-naphthyridine-2-carboxamide], the activity at 0.03 µg/mL in experiment [1] was at least 200%. Also, the “bone density of the femur” value in the experiment with female F344 rats is given as “significantly increased”. With `NC(=O)c1ccc2cncc(N3CCC(C4CCCCC4)CC3)c2c1` [Example 53], the activity at 0.03 µg/mL in experiment [1] is at least 200%. The same measure, in the same setting: for `NC(=O)c1ccc2cncc(N3CCC(OCCO)CC3)c2c1` [Example 20, 4-[4-(2-Hydroxyethoxy)piperidin-1-yl]isoquinoline-6-carboxamide] the value was at least 200%; for `COC1CCN(c2cncc3ccc(C(N)=O)cc23)CC1` [Example 76], at least 200%; for `NC(=O)c1ccc2cncc(N3CCC(C4CCOCC4)CC3)c2c1` [Example 65], at least 200%. On the same count and under the same terms, for `NC(=O)c1ccc2cncc(N3CCC(OCCOC4CCOCC4)CC3)c2c1` [Example 81] the value was at least 200%. Same read-out and setting: for `COCC1CN(c2cncc3ccc(C(N)=O)cc23)CCC1OC` (stereo not drawn) [Example 109] the value was at least 200%. Regarding `NC(=O)c1ccc2cncc(N3CCC(OCCS(=O)(=O)N4CCOCC4)CC3)c2c1` [Example 97], the activity at 0.03 µg/mL in experiment [1] was at least 200%. The same measure, in the same setting: for `COCC1CN(c2cncc3ccc(C(N)=O)cc23)CCN1c1ccccc1` (stereo not drawn) [Example 84] the value was at least 200%; for `NC(=O)c1ccc2cncc(N3CCC(CO)CC3)c2c1` [Example 55], at least 200%. On the same count and under the same terms, for `NC(=O)c1ccc2cncc(N3CCN(c4ccc([N+](=O)[O-])cc4)CC3)c2c1` [Example 57] the value was at least 200%; for `NC(=O)c1ccc2cncc(N3CCC(COCCOC4CCOCC4)CC3)c2n1` [Example 110], at least 200%; for `COCC1CCCN(c2cncc3ccc(C(N)=O)nc23)C1` (stereo not drawn) [Example 11, 8-[3-(Methoxymethyl)piperidin-1-yl]-1,6-naphthyridine-2-carboxamide], at least 200%.

As to `CCN(C)C(=O)N1CCN(c2cncc3ccc(C(N)=O)nc23)CC1` [Example 115], the activity at 0.03 µg/mL in experiment [1] is at least 200%. On the same count and under the same terms, for `COC[C@@H]1CCCN(c2cncc3ccc(C(N)=O)cc23)C1` [Example 40] the value was at least 200%. Same read-out and setting: for `NC(=O)c1ccc2cncc(N3CCCN(c4ccccc4)CC3)c2c1` [Example 63] the value was at least 200%.

In the case of `NC(=O)c1ccc2cncc(N3CCC(c4ccccc4)CC3)c2n1` [Example 83], the activity at 0.03 µg/mL in experiment [1] was at least 200%.

On to `NC(=O)c1ccc2cncc(N3CCC(OCCS(=O)(=O)N4CCOCC4)CC3)c2n1` [Example 92], for which the activity at 0.03 µg/mL in experiment [1] was at least 200%. The same measure, in the same setting: for `NC(=O)c1ccc2cncc(N3CCC(C(=O)c4ccc(F)cc4)CC3)c2c1` [Example 70] the value was at least 200%; for `CC(=O)c1ccn(-c2cncc3ccc(C(N)=O)cc23)c1` [Example 48], at least 200%. The same measure, in the same setting: the result for `NC(=O)c1ccc2cncc(N3CCC(COC4CCOCC4)CC3)c2c1` [Example 77] reads at least 200%; that for `NC(=O)c1ccc2cncc(N3CCC(C(F)(F)F)CC3)c2c1` [Example 44], at least 200%. On the same count and under the same terms, for `CC(=O)C1(c2ccccc2)CCN(c2cncc3ccc(C(N)=O)cc23)CC1` [Example 46] the value was at least 200%; for `NC(=O)c1ccc2cncc(N3CCC(OCC(=O)N4CCOCC4)CC3)c2c1` [Example 93], at least 200%.
